This note sets out measurements from patent US20100311714A1, “1H-IMIDAZO[4,5-c]QUINOLINONE COMPOUNDS” (priority 2009, published 2010).

The test deals with PKB Ser473 phosphorylation in Rat1-myr-HA-p110 delta cells. The test can be described thus: Reverse protein array, PKB Ser473 phosphorylation in Rat1-myr-HA-p110 delta cells. In kind it is cell-based. Particulars: Rattus norvegicus, 0.5 h, 30 minutes compound incubation, read-out: p-PKB/IC50_delta.
As for `Cc1nc(C(F)(F)F)ccc1-n1c(=O)n(C)c2cnc3ccc(-c4cncc(C(C)(C)O)c4)cc3c21` [Example 33.1, 8-[5-(1-Hydroxy-1-methyl-ethyl)-pyridin-3-yl]-3-methyl-1-(2-methyl-6-trifluoromethyl-pyridin-3-yl)-1,3-dihydro-imidazo[4,5-c]quinolin-2-one], the IC50 was 43 nM.
As for `CCNc1ncc(-c2ccc3ncc4c(c3c2)n(-c2ccc(N3CC[C@@H](O)C3)nc2C)c(=O)n4C)cc1C(F)(F)F` [Example 34.2, 8-(6-Ethylamino-5-trifluoromethyl-pyridin-3-yl)-1-[6-((R)-3-hydroxy-pyrrolidin-1-yl)-2-methyl-pyridin-3-yl]-3-methyl-1,3-dihydro-imidazo[4,5-c]quinolin-2-one], the IC50 came out at 39.9 nM.
The value for `CCNc1ncc(-c2ccc3ncc4c(c3c2)n(-c2ccc(N3CC[C@@H](O)C3)nc2C)c(=O)n4C)cc1COCC` [Example 34.4, 8-(5-Ethoxymethyl-6-ethylamino-pyridin-3-yl)-1-[6-((R)-3-hydroxy-pyrrolidin-1-yl)-2-methyl-pyridin-3-yl]-3-methyl-1,3-dihydro-imidazo[4,5-c]quinolin-2-one] was 253 nM.
